By viability is commonly meant a read-out of living cells in per cent, often relative to untreated cells.

Structures are written as SMILES.

The nature of one series: in vitro. The following applies: human, hela cells, % viability.
In the case of `CC1(C)Cc2c(sc(NC(=O)Cc3ccccc3)c2C(=O)O)CO1` [CBK264354], the viability at 28.5 h, 10 µM was determined as 110%. For the molecule `Cc1ccc(/C=C2\SC(=S)N(CCCC(=O)N3CCC(Cc4ccccc4)CC3)C2=O)cc1` [CBK264356], the viability at 28.5 h, 10 µM came to 101%. As for `O=C(Cn1nnc(-c2ccccc2)n1)Nc1ccccc1C(=O)O` [CBK264358], the viability at 28.5 h, 10 µM was 103%. On to `COc1ccc(-n2nc3cc(C)c(NC(=S)NC(=O)/C=C/c4ccco4)cc3n2)cc1` [CBK264359], for which the viability at 28.5 h, 10 µM is 109%.

As for `O=C(COc1ccccc1)NC(=S)Nc1cccc(-c2nc3ccccc3s2)c1` [CBK264360], the viability at 28.5 h, 10 µM stood at 107%.

`O=[N+]([O-])c1ccc(N2CCN(S(=O)(=O)c3ccc4ccccc4c3)CC2)cc1NC1CC1` [CBK264361]: the viability at 28.5 h, 10 µM was 111%. On the same count and under the same terms, to `NS(=O)(=O)c1ccc(CCNC(=O)c2cc(-c3ccccc3)nc3ccccc23)cc1` [CBK264365] belongs 96.9%. For `O/N=C1/CCCCCC1NO` (stereo not drawn) [CBK264368A], the viability at 28.5 h, 10 µM worked out at 107%. For the molecule `Cc1[nH]c2ccccc2c1-c1csc(-c2ccncc2)n1` [CBK264371], the viability at 28.5 h, 10 µM was 96.8%.

For the molecule `CC(=O)Oc1ccc(C(=O)NCc2ccc3c(c2)OCO3)cc1` [CBK264372], the viability at 28.5 h, 10 µM turned out to be 91.2%. For the molecule `Cc1ccc(O)c(NC(=S)NC(=O)COc2ccccc2)c1` [CBK264373], the viability at 28.5 h, 10 µM was found to be 106%. Still for that read-out and setting: to `CCCCOc1ccc(S(=O)(=O)Nc2ccc(-c3cn4ccccc4n3)cc2)cc1` [CBK264374] belongs 88.9%; to `NS(=O)(=O)c1ccc(CCNC(=O)CN2C(=O)c3ccccc3C2=O)cc1` [CBK264377], 96%; to `CC(C)(c1ccccc1)c1ccc(OCCOc2ccc(/C=C3\SC(=S)NC3=O)cc2)cc1` [CBK264378], 91%. Take `NS(=O)(=O)c1ccc(CCNC(=O)/C=C/c2ccccc2Cl)cc1` [CBK264379]: the viability at 28.5 h, 10 µM turned out to be 94%. On to `O=C(COc1ccccc1)NC(=S)Nc1cc(-c2nc3ncccc3o2)ccc1Cl` [CBK264380], for which the viability at 28.5 h, 10 µM worked out at 89.3%.

With `O=S(=O)(c1ccc(Cl)cc1)N1CCN(CC(O)Cn2c3ccccc3c3ccccc32)CC1` (stereo not drawn) [CBK264383], the viability at 28.5 h, 10 µM amounted to 105%. For `CCOc1ccc(NCCCCO)cc1` [CBK264386], the viability at 28.5 h, 10 µM stood at 92%. The same measure, in the same setting: to `OCc1ccccc1CN1CCOCC1` [CBK264388C] belongs 83.3%. As to `NS(=O)(=O)c1ccc(CCNC(=O)C2c3ccccc3Oc3ccccc32)cc1` [CBK264389], the viability at 28.5 h, 10 µM came to 104%. On to `Cc1cc(C(=O)NCCc2ccc(S(N)(=O)=O)cc2)ccc1[N+](=O)[O-]` [CBK264390], for which the viability at 28.5 h, 10 µM was 105%. For the molecule `O=C(/C=C/c1cccc([N+](=O)[O-])c1)NC(=S)Nc1ccc(-c2nc3ncccc3o2)cc1` [CBK264391], the viability at 28.5 h, 10 µM was 99.2%. With `NS(=O)(=O)c1ccc(CCNC(=O)c2ccccc2Oc2ccccc2)cc1` [CBK264394], the viability at 28.5 h, 10 µM was determined as 89.4%. Consider `O=[N+]([O-])c1c(N2CCN(CCO)CC2)ccc2nonc12` [CBK264397], for which the viability at 28.5 h, 10 µM is 96%. Still for that read-out and setting: to `Cc1cc(C)nc(Sc2nnc(-c3ccc(C)c(S(=O)(=O)N4CCOCC4)c3)c3ccccc23)n1` [CBK264400] belongs 105%. With `CCc1cc2c3c(c(=O)oc2cc1OCc1cc(C(=O)O)oc1C)CCCC3` [CBK264402], the viability at 28.5 h, 10 µM is 98.8%. With `Cc1ccccc1C(=O)NC(=S)Nc1sc2c(c1C#N)CCCC2` [CBK264403], the viability at 28.5 h, 10 µM was found to be 98.3%. Regarding `COc1cc(/C=C/C(=O)O)cc(S(=O)(=O)N2CCc3ccccc3C2)c1OC` [CBK264406], the viability at 28.5 h, 10 µM was 96.8%. The same measure, in the same setting: to `Cc1cc(C)n(-c2cc(N3CCN(S(=O)(=O)Cc4ccccc4)CC3)ccc2[N+](=O)[O-])n1` [CBK264407] belongs 115%. For the molecule `Cc1ccc(-c2nnc(S)n2/N=C\c2ccccc2OCC(=O)O)cc1` [CBK264408], the viability at 28.5 h, 10 µM turned out to be 90.7%. The same measure, in the same setting: for `CCN1CCN(c2ccc([N+](=O)[O-])cc2S(=O)(=O)N2CCOCC2)CC1` [CBK264410] the value was 113%; for `CCN(CC)CCn1c(OC)cc(=O)[nH]c1=O` [CBK264411], 97.5%; for `O=C(COC(=O)C1CCN(S(=O)(=O)c2cccc3cccnc23)CC1)c1ccc([N+](=O)[O-])cc1` [CBK264412], 101%.

With `O=C1C2C3C=CC(C3)C2C(=O)N1CCNCCO` (stereo not drawn) [CBK264414], the viability at 28.5 h, 10 µM was 93%. The same measure, in the same setting: to `O=[N+]([O-])c1ccc(N2CCN(S(=O)(=O)c3ccccc3)CC2)cc1NCc1cccnc1` [CBK264415] belongs 96.5%.

In the case of `O=C(Nc1ccc(Cl)cc1)c1ccc(N2CCN(Cc3ccccc3)CC2)c([N+](=O)[O-])c1` [CBK264422], the viability at 28.5 h, 10 µM stood at 103%. In the case of `Cc1sc2nc(SCC(=O)NCCO)nc(N)c2c1C` [CBK264423], the viability at 28.5 h, 10 µM was determined as 109%.

Turning to `Cc1sc2nc(SCCCN3C(=O)c4cccc5cccc(c45)C3=O)nc(N)c2c1C` [CBK264424], the viability at 28.5 h, 10 µM stood at 76.6%.

`Cc1ccc(C)n1-c1ccc(C(=O)OCC(=O)c2cccc([N+](=O)[O-])c2)cc1` [CBK264427]: the viability at 28.5 h, 10 µM is 97.8%. As to `Cn1c(CSc2nc3sc4c(c3c(=O)[nH]2)CCCC4)nnc1SC/C=C/c1ccccc1` [CBK264428], the viability at 28.5 h, 10 µM is 107%. In the case of `COC(=O)c1c(NC(=O)CC2Sc3ccccc3NC2=O)sc(C)c1C` (stereo not drawn) [CBK264429], the viability at 28.5 h, 10 µM stood at 103%.

Take `O=C(OCc1ccc([N+](=O)[O-])cc1)C1CCN(S(=O)(=O)c2cccc3cccnc23)CC1` [CBK264430]: the viability at 28.5 h, 10 µM came out at 115%.

With `COc1cccc(Nc2nnc(-c3cc4cc(OC)ccc4oc3=O)s2)c1` [CBK264432], the viability at 28.5 h, 10 µM was determined as 94.1%.

`O=C(COC(=O)C1CCN(S(=O)(=O)c2cccc3cccnc23)CC1)c1cccc([N+](=O)[O-])c1` [CBK264435]: the viability at 28.5 h, 10 µM came out at 97%.

For the molecule `Cc1ccc(-c2nc3ccc(C)cc3c(C(=O)OCC(=O)c3cccc([N+](=O)[O-])c3)c2C)cc1` [CBK264436], the viability at 28.5 h, 10 µM worked out at 104%. Consider `COc1cccc(/C=C2/SC(=S)NC2=O)c1OCCCOc1ccccc1C` [CBK264442], for which the viability at 28.5 h, 10 µM was 98.9%.

As to `NC(=O)c1ccc(NCCCN2CCOCC2)c([N+](=O)[O-])c1` [CBK264443], the viability at 28.5 h, 10 µM was 104%.

As to `CCOc1cc(C(c2c[nH]c3ccccc23)c2c[nH]c3ccccc23)ccc1OCC(=O)O` [CBK264450], the viability at 28.5 h, 10 µM was determined as 97.1%.

Regarding `CCOc1cc(/C=C/c2ccc3cccc(O)c3n2)cc(Br)c1O` [CBK264451], the viability at 28.5 h, 10 µM was determined as 95%. Turning to `CSc1nnc2c(n1)OC(/C=C/c1ccccc1)N(C(C)=O)c1ccccc1-2` (stereo not drawn) [CBK264453], the viability at 28.5 h, 10 µM is 99.7%. Turning to `Cc1ccc(S(=O)(=O)N(C)CCCC(=O)n2cnc3ccccc32)cc1` [CBK264457], the viability at 28.5 h, 10 µM came out at 104%. Take `CCc1cc2c(=O)c(-c3cnn(-c4ccccc4)c3)c(C(F)(F)F)oc2c(CN2CCCCC2)c1O` [CBK264458]: the viability at 28.5 h, 10 µM is 91.7%.

The series is the same for the next values; noted with them: human, hela cells, % viability, bulk resorufin, single well.
`O=C1NC(=O)N(c2ccc(Cl)cc2)C(=O)/C1=C\NC(CO)(CO)CO` [CBK264421]: the viability at 28.5 h, 10 µM was found to be 99.7%. Still for that read-out and setting: for `O=C1NC(=O)N(Cc2ccccc2)C(=O)/C1=C\NC(CO)(CO)CO` [CBK264431] the value was 104%.

The values above are taken from article PMC12040169 (PLOS Biology, 2025).
